AC50 data for 70 compounds are collected here from PubChem BioAssay AID493102 (Broad Institute, 2011).

This experiment has as its system SK-MEL-5 TRPM1-promoter luciferase reporter, 24 h. Nature of the experiment: reducers of TRPM1 reporter luminescence, concentration series – cell-based, SK-MEL-5, cherry-picked, set 4, MITF inhibitor project, dose response (AID 493102).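 Note: actives lower the luciferase signal so the potency reflects inhibition of reporter expression.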

Broadly, the AC50 is the midpoint of the concentration-response curve, whichever way the signal moves. For `CCOc1ccc(-n2c(C)cc(C(=O)CCl)c2C)cc1`, the AC50 was 4.59 µM.
Next, `O=[N+]([O-])c1ccc(/C=N/Nc2ccnc3cc(Cl)ccc23)o1`: 15.3 µM; `Cn1c(SCC(=O)N/N=C/c2ccc([N+](=O)[O-])s2)nnc1-c1ccccc1`: 4.28 µM; `Cc1ccc(S(=O)(=O)/N=C2\C(=O)c3ccccc3C([O-])=C2n2cc[n+](CCC(C)C)c2)cc1`: 4.11 µM.
In the case of `O=C(c1ccc(S(=O)(=O)Cc2ccccc2Cl)c([N+](=O)[O-])c1)N1CCN(c2ccccn2)CC1` it was 9.49 µM; in that of `COCCCn1[nH]c2c3c(ccc2c1=O)C(=O)c1ccccc1C3=O`, 8.86 µM; in that of `COc1cccc(C(=O)N/N=C(/c2ccccc2)c2ccccn2)c1`, 5.8 µM.
Regarding `O=C1/C(=C/c2ccccc2[N+](=O)[O-])COc2ccccc21`, the AC50 is 9.8 µM.
Next, `O=[N+]([O-])c1ccc(Sc2cc[n+]([O-])c3ccccc23)c([N+](=O)[O-])c1`: 5.92 µM; `Nc1ccc(-c2cc3ccccc3c(=O)o2)cc1`: 0.293 µM.
With `CC(C)C1CC(CCNCc2ccc(N(C)C)cc2)(c2ccccc2)CCO1` (stereo not given), the AC50 was 11.1 µM.
With `CC(C)n1cc(/C=C/c2cc[n+](C)cc2)c2ccccc21`, the AC50 was 8.14 µM.
Next, `O=C(Cn1ncc(Cl)c(Cl)c1=O)Nc1ccc2c(c1)OCO2`: 13.2 µM; `Cc1nc(C)c(C(=O)N/N=C/c2cc(Br)ccc2O)s1`: 3.66 µM; `COC(=O)c1ccc(/C=C(\C#N)C(=O)NC(C)c2ccccc2)cc1` (stereo not given): 10.7 µM.
In the case of `CC1=NNC(=O)/C1=C\c1cn(-c2ccccc2)nc1-c1ccc(F)cc1`, the AC50 was 6.52 µM.
In the case of `CN(C)c1cc[n+](CC(=O)c2ccc(-c3ccccc3)cc2)cc1` it was 2.6 µM.
Next, `CCOC(=O)CSC1=NC(=O)/C(=C/c2ccc(OC)cc2)S1`: 3.98 µM; `COc1ccc(-c2cc(-c3ccccc3)[n+](C)c(-c3ccccc3)c2)cc1`: 3.2 µM; `CC(=O)NC1=C(N(C)C2CCS(=O)(=O)C2)C(=O)c2ccccc2C1=O` (stereo not given): 21.2 µM.
As to `O=C(CSc1ccc(Cl)cc1)NC1CCCC1`, the AC50 is 14.2 µM.
Next, `O=C(O)c1cccc(COc2ccccc2Cl)c1`: 0.756 µM.
In the case of `O=C1/C(=N\S(=O)(=O)c2cccs2)C([n+]2ccccc2)=C([O-])c2ccccc21` it was 1.07 µM; in that of `O=C(C[n+]1cccc2ccccc21)c1ccc([N+](=O)[O-])cc1`, 6.21 µM; in that of `Cc1c(CCOC(=O)c2ccc(Cl)cc2Cl)sc[n+]1CC(=O)c1ccc(Br)cc1`, 19.8 µM.
In the case of `CCOc1ccc(NC(=O)c2ccccn2)cc1` it was 4.4 µM; in that of `COc1ccc(C(=O)/C=C/C(=O)N(CC(=O)NC2CCCCC2)Cc2ccccc2OC)c(O)c1`, 4.04 µM; in that of `N#CC(C#N)=C1C=CC=CN1/C(=C\c1ccco1)C(=O)c1ccc(Cl)cc1`, 6.85 µM.
On to `Cc1cc(C)cc(NC(=O)c2ccc([N+](=O)[O-])o2)c1`, for which the AC50 is 16.6 µM.
Next, `CCN1CCN(C2=C(NS(=O)(=O)c3ccc(C)cc3)C(=O)c3ccccc3C2=O)CC1`: 4.18 µM; `CCN(CC)c1ccc(/C=N/NC(=O)c2cccc(S(=O)(=O)N3CCOCC3)c2)c(O)c1`: 1.52 µM.
Regarding `CC[n+]1c(/C=C/N(C)c2ccccc2)sc2ccc(Cl)cc21`, the AC50 is 9.07 µM.
In the case of `O=C(N/N=C/c1ccc(F)cc1)c1c(O)c2ccccc2[nH]c1=O` it was 9.64 µM.
In the case of `CCC(=O)N1CCN(c2ccc(NC(=O)c3ccc([N+](=O)[O-])o3)cc2Cl)CC1`, the AC50 is 6.08 µM.
As for `C1CCC(C(CC2CCCCN2)C2CCCCC2)CC1` (stereo not given), the AC50 was 18.8 µM.
Next, `COc1cc(/C=N/NC(N)=O)c(Br)cc1OCC(=O)Nc1ccccc1C`: 17.8 µM.
In the case of `CCC(=O)OCCNc1cc(Sc2nc3ccccc3[nH]2)c2nonc2c1[N+](=O)[O-]` it was 9.14 µM.
`COc1cc(/C=C/C(=O)c2ccc3c(c2)OCCO3)cc(Br)c1OCC(=O)N(C)C`: the AC50 is 6.17 µM.
Next, `Nc1ccc(-c2ncc(-c3ccccc3)o2)cc1`: 0.171 µM; `CN(c1ccc2nc3ccccc3c(=O)n2n1)C1CCCCC1`: 1.29 µM; `CC1CCN(Cc2nc(-c3ccc(Cl)cc3)no2)CC1`: 7.62 µM.
In the case of `CCn1c(/C=C/Nc2ccccc2)[n+](CC)c2cc(Cl)c(Cl)cc21` it was 14.5 µM.
In the case of `O=C(/C=C/NNC(=O)c1ccccc1)c1ccc([N+](=O)[O-])cc1` it was 9.19 µM.
For the compound `COc1ccc(Br)cc1/C=C/C(=O)c1ccc(NC(C)=O)cc1`, the half-maximal activity concentration (AC50) is 4.63 µM.
Regarding `COc1cc2c(cc1OC)C(c1ccccc1)N(C(=O)CCl)CC2` (stereo not given), the AC50 is 5.36 µM.
In the case of `Cc1ccccc1NC(=O)Cc1nc(COC(=O)c2ccc(S(C)(=O)=O)c([N+](=O)[O-])c2)cs1` it was 12.8 µM; in that of `O=S(=O)(CC(CN1CCCCC1)N1CCCCC1)c1ccc2ccccc2c1` (stereo not given), 12.5 µM.
Next, `COc1ccc(C(=O)C(CN2CCCC2)c2ccccc2)cc1` (stereo not given): 9.13 µM; `O=C(Nc1ccc(S(=O)(=O)N2CCCCCC2)cc1)c1[nH]ncc1[N+](=O)[O-]`: 4.02 µM.
In the case of `Cn1nnnc1Sc1ncnc2scc(-c3cccc(F)c3)c12` it was 5.98 µM; in that of `CN1CCN(c2ccc(NC(=O)c3ccc([N+](=O)[O-])o3)cc2Cl)CC1`, 9.02 µM; in that of `Cc1ccc(-c2cn3nc(C)c(C)nc3n2)cc1`, 5.3 µM.
For the compound `CCOc1cc(/C=C(/C#N)c2ccc(Cl)cc2)cc(Cl)c1OCC(=O)O`, the AC50 is 5.61 µM.
Next, `CCn1c(C)cc(C(=O)CN2C(=O)c3ccccc3S2(=O)=O)c1C`: 1.99 µM; `NC(=O)C1CCN(C2=C(NS(=O)(=O)c3ccc(Br)cc3)C(=O)c3ccccc3C2=O)CC1`: 11.9 µM; `Cc1ccc(C(=O)N/C(=C\c2ccc(-c3ccccc3[N+](=O)[O-])o2)C(=O)NCCN(C)C)cc1`: 4.87 µM.
Next, `Cc1ccccc1C(=O)N/N=C/c1ccc([N+](=O)[O-])s1`: 1.88 µM.
Next, `CN(C)CCNC(=O)/C(=C/c1ccc(-c2ccc(Cl)cc2Cl)o1)NC(=O)c1ccccc1`: 4.97 µM.
Regarding `O=C(O)c1cccc(NC(=O)c2cccc(NC(=O)C3CCCO3)c2)c1` (stereo not given), the AC50 was 21.2 µM.
Next, `CCOC(=O)CSC1=NC(=O)/C(=C\c2ccc(OC(C)=O)cc2)S1`: 5.13 µM.
Turning to `CCN(CC)CCn1nc2c3c(cccc3c1=O)-c1ccccc1-2`, the AC50 was 5.92 µM.
On to `CCN(CC)CCNC(=O)c1c(C)n(-c2ccccc2)c2cc(Br)c(OC)cc12`, for which the AC50 is 12.9 µM.
For `O=C(c1ccc(F)cc1)C(CN1CCOCC1)c1ccccc1` (stereo not given), the AC50 was 5.96 µM.
Next, `CCOc1ccc(-c2ccc(SC)nn2)cc1`: 5.17 µM.
In the case of `COc1ccc(Br)cc1C(C[N+](=O)[O-])c1c(N)n(C)c(=O)n(C)c1=O` (stereo not given) it was 8.73 µM.
Next, `O=C(CCl)N1N=C(c2ccco2)CC1c1cccs1` (stereo not given): 7.84 µM; `CCCCC[n+]1ccn(C2=C([O-])c3ccccc3C(=O)/C2=N\S(=O)(=O)c2ccccc2)c1`: 5.9 µM; `CC(C)(C)c1ccc(C(=O)N2CCCCCC2=O)cc1`: 1.12 µM.
Consider `Cc1ccc(-c2c[n+](Cc3cccc(Cl)c3)c3n2CCC3)cc1`, for which the AC50 was 12.2 µM.
In the case of `COc1cc(SC)ccc1C(=O)Nc1nc(C)cs1` it was 4.81 µM.
